Source: ChEMBL document CHEMBL3769386, “Targeting microsomal prostaglandin E2synthase-1 (mPGES-1): the development of inhibitors as an alternative to non-steroidal anti-inflammatory drugs (NSAIDs)” (Medchemcomm, 2015)

Columns and labels:
[1] = biological target: T1, Prostaglandin E synthase (Mus musculus) (UniProt Q9JM51); experiment: Inhibition of microsomal PGES1 in mouse J774 cells assessed as reduction of LPS-induced PGE2 production inhibition at 100 uM by radioimmuno assay in presence of radio labelled PGE2; type: cell-based
T1 sequence (whole entry): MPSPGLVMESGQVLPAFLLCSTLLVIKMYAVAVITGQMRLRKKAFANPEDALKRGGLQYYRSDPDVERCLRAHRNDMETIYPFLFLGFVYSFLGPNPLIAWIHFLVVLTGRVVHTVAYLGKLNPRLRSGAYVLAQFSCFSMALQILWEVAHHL

Prostaglandin E synthase [2] = biological target: T2, Prostaglandin E synthase (Homo sapiens, UniProt O14684); experiment: Inhibition of microsomal PGES1 (unknown origin)
T2 sequence (O14684 whole entry): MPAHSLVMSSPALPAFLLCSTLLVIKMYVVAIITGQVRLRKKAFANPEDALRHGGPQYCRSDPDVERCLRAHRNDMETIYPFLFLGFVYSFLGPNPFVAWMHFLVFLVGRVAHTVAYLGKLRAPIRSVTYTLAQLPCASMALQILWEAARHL

Prostaglandin E synthase [3] = biological target: T2, Prostaglandin E synthase; experiment: Inhibition of microsomal PGES1 in ILbeta-stimulated human A549 cells using PGH2 as substrate preincubated for 15 mins followed by substrate addition measured after 1 min by RP-HPLC analysis; type: cell-based
[4] = biological target: Prostaglandin G/H synthase 1 (Homo sapiens, UniProt P23219); experiment: Inhibition of COX1 (unknown origin)
Chain of Prostaglandin G/H synthase 1 (P23219 whole entry): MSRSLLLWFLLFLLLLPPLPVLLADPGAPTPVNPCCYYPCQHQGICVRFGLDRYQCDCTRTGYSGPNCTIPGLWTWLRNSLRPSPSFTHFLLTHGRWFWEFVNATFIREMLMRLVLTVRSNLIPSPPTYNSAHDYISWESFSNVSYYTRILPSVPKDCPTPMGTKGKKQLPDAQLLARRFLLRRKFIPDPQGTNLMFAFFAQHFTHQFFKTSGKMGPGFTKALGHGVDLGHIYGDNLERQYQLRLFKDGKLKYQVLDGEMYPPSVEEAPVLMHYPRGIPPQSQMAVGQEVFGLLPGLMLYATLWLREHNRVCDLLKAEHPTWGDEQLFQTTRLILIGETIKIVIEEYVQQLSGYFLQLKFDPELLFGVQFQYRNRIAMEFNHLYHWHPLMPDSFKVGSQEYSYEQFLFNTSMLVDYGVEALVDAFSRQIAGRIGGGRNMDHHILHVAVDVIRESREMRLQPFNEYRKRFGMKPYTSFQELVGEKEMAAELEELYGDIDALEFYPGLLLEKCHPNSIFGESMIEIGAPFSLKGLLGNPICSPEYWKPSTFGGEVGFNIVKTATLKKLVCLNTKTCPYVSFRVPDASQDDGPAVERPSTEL

[5] = Inhibition of recombinant rat microsomal PGES1 using PGH2 as substrate incubated for 90 secs by MDA-TBA assay
Prostaglandin E synthase [6] = biological target: T2, Prostaglandin E synthase; experiment: Inhibition of human microsomal PGES1 using PGH2 as substrate incubated for 90 secs by MDA-TBA assay
[7] = Inhibition of recombinant rat microsomal PGES1 using PGH2 as substrate after 75 secs by MDA-TBA assay
Prostaglandin E synthase [8] = biological target: T2, Prostaglandin E synthase; experiment: Inhibition of human microsomal PGES1 using PGH2 as substrate incubated after 75 secs by MDA-TBA assay
Prostaglandin E synthase [9] = biological target: T2, Prostaglandin E synthase; experiment: Inhibition of recombinant human microsomal PGES1 using PGH2 as substrate preincubated for 15 mins followed by substrate addition measured after 5 mins by enzyme immunoassay
[10] = biological target: T3, Polyunsaturated fatty acid 5-lipoxygenase (Homo sapiens, UniProt P09917); experiment: Inhibition of 5-lipooxygenase (unknown origin)
T3 sequence (P09917 whole entry): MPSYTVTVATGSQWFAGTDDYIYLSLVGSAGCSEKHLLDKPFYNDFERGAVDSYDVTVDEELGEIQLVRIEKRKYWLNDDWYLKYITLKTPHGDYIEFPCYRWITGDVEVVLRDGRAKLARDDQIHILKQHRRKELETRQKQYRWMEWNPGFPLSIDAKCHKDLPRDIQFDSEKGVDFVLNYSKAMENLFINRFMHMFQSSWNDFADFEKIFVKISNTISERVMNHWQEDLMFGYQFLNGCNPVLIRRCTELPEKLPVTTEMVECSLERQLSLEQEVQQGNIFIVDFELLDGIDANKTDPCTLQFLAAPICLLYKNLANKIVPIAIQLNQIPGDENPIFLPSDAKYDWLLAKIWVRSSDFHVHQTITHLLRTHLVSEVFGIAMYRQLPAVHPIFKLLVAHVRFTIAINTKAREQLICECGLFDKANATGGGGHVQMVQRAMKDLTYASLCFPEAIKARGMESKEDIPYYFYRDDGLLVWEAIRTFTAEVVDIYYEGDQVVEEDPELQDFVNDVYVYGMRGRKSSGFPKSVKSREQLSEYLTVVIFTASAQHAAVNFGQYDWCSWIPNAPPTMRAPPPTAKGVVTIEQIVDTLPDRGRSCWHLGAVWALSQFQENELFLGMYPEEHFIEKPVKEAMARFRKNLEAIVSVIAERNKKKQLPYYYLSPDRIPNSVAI

[11] = biological target: T4, Prostaglandin G/H synthase 2 (Homo sapiens, UniProt P35354); experiment: Inhibition of COX2 in IL1beta-induced human A549 cells using arachidonic acid as substrate assessed as 6-keto PGF1a formation preincubated for 10 mins followed by substrate addition measured after 30 mins by enzyme immunoassay; type: cell-based
T4 sequence (P35354 whole entry): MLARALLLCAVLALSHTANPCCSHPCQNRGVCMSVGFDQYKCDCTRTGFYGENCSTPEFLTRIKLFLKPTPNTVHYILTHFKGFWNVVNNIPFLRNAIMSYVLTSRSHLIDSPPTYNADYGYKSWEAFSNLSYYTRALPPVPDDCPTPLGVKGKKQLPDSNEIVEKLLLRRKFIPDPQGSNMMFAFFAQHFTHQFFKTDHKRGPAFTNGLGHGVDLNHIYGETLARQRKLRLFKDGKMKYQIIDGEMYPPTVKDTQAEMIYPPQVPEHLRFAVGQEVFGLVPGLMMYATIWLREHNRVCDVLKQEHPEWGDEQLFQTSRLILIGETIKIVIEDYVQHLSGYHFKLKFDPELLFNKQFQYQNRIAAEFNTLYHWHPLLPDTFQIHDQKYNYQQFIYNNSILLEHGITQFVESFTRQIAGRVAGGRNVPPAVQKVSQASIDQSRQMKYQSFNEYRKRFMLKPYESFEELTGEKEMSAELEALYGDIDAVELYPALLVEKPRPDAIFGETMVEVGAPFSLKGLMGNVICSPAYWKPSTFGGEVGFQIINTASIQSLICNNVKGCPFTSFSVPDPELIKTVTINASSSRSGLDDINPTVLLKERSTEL

Prostaglandin E synthase [12] = biological target: T2, Prostaglandin E synthase; experiment: Inhibition of microsomal PGES1 in ILbeta/TNFalpha-stimulated human A549 cells using PGH2 as substrate preincubated for 15 mins followed by substrate addition measured after 1 min by LC-MS/MS analysis; type: cell-based

O=C1c2c(O)cc(O)cc2OC(c2ccc(O)cc2)C1O (stereo unspecified)
inhibition [1]: 93.1%

Cc1c(CC(C)(C)C(=O)O)n(Cc2ccc(Cl)cc2)c2cc(F)c(-c3ccccc3Cl)cc12
IC50 (Prostaglandin E synthase [2]; read-out: pIC50 (converted)): 5.01 nM

CC(C)c1cc2c(c(O)c1O)[C@@]13CCCC(C)(C)[C@@H]1C[C@@H]2OC3=O [CARNOSOL]
IC50 (Prostaglandin E synthase [3]): 5000 nM

O=C(Nc1cccc2ccccc12)c1cccc(NC(=O)c2ccccc2Cl)c1
IC50 (Prostaglandin E synthase [2]; read-out: IC50): 200 nM

CC(=O)c1ccccc1-c1cc2c(C)c(CC(C)(C)C(=O)O)n(Cc3ccc(Cl)cc3)c2cc1F
IC50 (Prostaglandin E synthase [2]; read-out: pIC50 (converted)): 3.98 nM

CC(C)c1cc2c(c(O)c1O)[C@@]1(C(=O)O)CCCC(C)(C)[C@@H]1CC2 [CARNOSIC ACID]
IC50 (Prostaglandin E synthase [3]): 5000 nM

CCCCCC(=O)Cc1cc(O)cc2c1C(=O)Oc1cc(O)c(C(=O)O)c(CCCCC)c1O2 [PHYSODIC ACID]
IC50 (Prostaglandin E synthase [3]): 430 nM
IC50 [4]: > 30000 nM

CCCCCc1cc(OC(=O)c2c(O)cc(O)cc2CCCCC)cc(O)c1C(=O)O
IC50 (Prostaglandin E synthase [3]): 400 nM
IC50 [4]: > 30000 nM

Cc1cc2nc(N3CCC(C(=O)NC4CCCC4)CC3)n(C(C)C)c2cc1C
IC50 [5]: 900 nM
IC50 (Prostaglandin E synthase [6]): 90 nM

CC1=NN(C(N)=S)C(=O)/C1=N/Nc1cccc(Br)c1
IC50 [7]: 620 nM
IC50 (Prostaglandin E synthase [8]): 1800 nM

COc1cc(O)ccc1C1Oc2cc(O)cc(O)c2C(=O)C1O (stereo unspecified)
inhibition [1]: 94.3%

COc1ccccc1-c1cc2c(C)c(CC(C)(C)C(=O)O)n(Cc3ccc(Cl)cc3)c2cc1F
IC50 (Prostaglandin E synthase [2]; read-out: pIC50 (converted)): 6.92 nM

O=C(Nc1ccc2c(c1)c1ccccc1n2CCO)c1ccccc1C(F)(F)F
IC50 (Prostaglandin E synthase [9]): 900 nM

COc1cc(/C=C/C(=O)CC(=O)/C=C/c2ccc(O)c(OC)c2)ccc1O [CURCUMIN]
IC50 (Prostaglandin E synthase [3]): 200 nM

CCCCCC(=O)Cc1cc(O)cc(O)c1C(=O)Oc1cc(O)c(C(=O)O)c(CCCCC)c1
IC50 (Prostaglandin E synthase [3]): 1150 nM
IC50 [4]: > 30000 nM

Cc1ccc(C)c(-c2cc(C(F)(F)F)nn2-c2ccc(S(N)(=O)=O)cc2)c1 [DIMETHYL CELECOXIB]
IC50 (Prostaglandin E synthase [2]; read-out: IC50): 600 nM

CC(=O)c1c(O)c(CC=C(C)C)c(O)c(C(c2ccccc2)c2c(O)cc(C)oc2=O)c1O (stereo unspecified)
IC50 (Prostaglandin E synthase [3]): 1000 nM

CCCCCCC(Sc1nc(Cl)cc(Nc2cccc(C)c2C)n1)C(=O)O (stereo unspecified)
IC50 [10]: 2000 nM

CCc1oc(=O)c(C(c2ccccc2)c2c(O)c(CC=C(C)C)c(O)c(C(C)=O)c2O)c(O)c1C (stereo unspecified)
IC50 (Prostaglandin E synthase [3]): 800 nM

CCc1oc(=O)c(Cc2c(O)c(CC=C(C)C)c(O)c(C(C)=O)c2O)c(O)c1C [ARZANOL]
IC50 [11]: ≥ 30000 nM

COc1cc(C(=O)NS(=O)(=O)c2ccccc2C)ccc1Cc1cn(C)c2ccc(NC(=O)OC3CCCC3)cc12 [ZAFIRLUKAST]
IC50 (Prostaglandin E synthase [12]): 18100 nM
